# Reference: patent publication US6737383B1, “Herbicidal oxadiazolidines” (priority 1999, dated 2004)
# Legend:
# rice = assay: Test B flood test rice; assay type: in vivo, Oryza sativa
# Procedure, shortened: (§1)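 Read-out is a visual response score from 0 (no effect) to 10 (complete control), assigned by comparison with untreated controls. Treatment was applied at the 2-leaf stage, and plants stayed in the greenhouse for twelve to sixteen days before scoring.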
# giant foxtail = assay: Test B pre/postemergence giant foxtail; assay type: in vivo, Setaria faberii
# Procedure, shortened: (§2)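 Test chemicals in a non-phytotoxic solvent mixture with surfactant were sprayed preemergence onto planted seeds and postemergence onto plants 2 to 18 cm tall (1- to 4-leaf stage). After twelve to sixteen days in a greenhouse, injury was visually rated against untreated controls from 0 (no effect) to 10 (complete control).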
# sugar beet = assay: Test B pre/postemergence sugar beet; assay type: in vivo, Beta vulgaris; conditions: for Plant response rating, Sugarbeets: scale of 0 to 10 where 0 is no effect and 10 is complete control
# Procedure, shortened: as §2
# surinam grass = assay: Test B pre/postemergence surinam grass; assay type: in vivo, Brachiaria decumbens
# Procedure, shortened: as §2
# soybean = assay: Test B pre/postemergence soybean; assay type: in vivo, Glycine max; conditions: for Plant response rating, Soybean: scale of 0 to 10 where 0 is no effect and 10 is complete control
# Procedure, shortened: as §2
# blackgrass = assay: Test B pre/postemergence blackgrass; assay type: in vivo, Alopecurus myosuroides
# Procedure, shortened: as §2
# cocklebur = assay: Test B pre/postemergence cocklebur; assay type: in vivo, Xanthium strumarium
# Procedure, shortened: as §2
# corn = assay: Test B pre/postemergence corn; assay type: in vivo, Zea mays
# Procedure, shortened: as §2
# wheat = assay: Test B pre/postemergence wheat; assay type: in vivo, Triticum aestivum; conditions: for Plant response rating, Wheat: scale of 0 to 10 where 0 is no effect and 10 is complete control
# Procedure, shortened: as §2
# bamyardgrass = assay: Test B flood test barnyardgrass; assay type: in vivo, Echinochloa crus-galli
# Procedure, shortened: as §1
# pigweed = assay: Test B pre/postemergence pigweed; assay type: in vivo, Amaranthus retroflexus; conditions: for Plant response rating, Redroot pigweed: scale of 0 to 10 where 0 is no effect and 10 is complete control
# Procedure, shortened: as §2
# duck salad = assay: Test B flood test duck salad; assay type: in vivo, Heteranthera limosa
# Procedure, shortened: as §1
# morningglory = assay: Test B pre/postemergence morningglory; assay type: in vivo, Ipomoea hederacea; conditions: for Plant response rating, Morningglory: scale of 0 to 10 where 0 is no effect and 10 is complete control
# Procedure, shortened: as §2
# velvetleaf = assay: Test B pre/postemergence velvetleaf; assay type: in vivo, Abutilon theophrasti; conditions: for Plant response rating, Velvetleaf: scale of 0 to 10 where 0 is no effect and 10 is complete control
# Procedure, shortened: as §2
# crabgrass = assay: Test B pre/postemergence crabgrass; assay type: in vivo, Digitaria sanguinalis
# Procedure, shortened: as §2
# wild oat = assay: Test B pre/postemergence wild oat; assay type: in vivo, Avena fatua; conditions: for Plant response rating, Wild oats: scale of 0 to 10 where 0 is no effect and 10 is complete control
# Procedure, shortened: as §2
# [1] = Rate 62 g/ha, flood test species, Pre-emergence, visual evaluation after twelve to sixteen days
# [2] = Rate 125 g/ha, under heading Pre-emergence, flood test species, visual evaluation after twelve to sixteen days
# [3] = Rate 250 g/ha, Pre-emergence (flood test species), scale 0 to 10, 0 is no effect, 10 is complete control
# [4] = Rate 500 g/ha, Pre-emergence, flood test species, scale 0 to 10 (0 no effect, 10 complete control)
# [5] = Postemergence, Rate 250 g/ha, scale 0 to 10
# [6] = Postemergence, Rate 500 g/ha, scale of 0 to 10 where 0 is no effect and 10 is complete control
# [7] = Preemergence, Rate 62 g/ha, scale of 0 to 10 where 0 is no effect and 10 is complete control
# [8] = Preemergence, Rate 125 g/ha, scale of 0 to 10 where 0 is no effect and 10 is complete control
# [9] = Preemergence, Rate 250 g/ha, scale 0 to 10, 0 is no effect, 10 is complete control
# [10] = Preemergence, Rate 500 g/ha, scale 0 to 10, 0 is no effect, 10 is complete control
# [11] = Rate 62 g/ha, Postemergence, scale 0 to 10 (0 no effect, 10 complete control)
# [12] = Rate 125 g/ha, Postemergence, scale 0 to 10, 0 is no effect, 10 is complete control
smiles,measurement,setting,value
COC(CCl)n1c(=O)on(C(=O)N(c2ccc(Cl)cc2)C(C)C)c1=O (stereo not shown) [Compound 458],"Plant response rating, Rice (0 to 10 scale, 0 is no effect, 10 is complete control)",rice; [1],0
same,"Rice plant response rating (0 to 10 scale, 0 is no effect, 10 is complete control)",rice; [2],0
same,Rice plant response rating,rice; [3],0
same,Rice plant response rating,rice; [4],0
same,Giant foxtail plant response rating,giant foxtail; [5],9
same,Giant foxtail plant response rating,giant foxtail; [6],9
same,"Plant response rating, Giant foxtail",giant foxtail; [7],9
same,"Plant response rating, Giant foxtail",giant foxtail; [8],9
same,Giant foxtail plant response rating,giant foxtail; [9],10
same,Giant foxtail plant response rating,giant foxtail; [10],10
same,Giant foxtail plant response rating,giant foxtail; [11],7
same,Giant foxtail plant response rating,giant foxtail; [12],9
same,Sugarbeets plant response rating,sugar beet; [5],0
same,"Plant response rating, Sugarbeets","sugar beet; Preemergence, Rate 62 g/ha",0
same,"Plant response rating, Sugarbeets","sugar beet; Preemergence, Rate 125 g/ha",0
same,Sugarbeets plant response rating,sugar beet; [9],2
same,Sugarbeets plant response rating,sugar beet; [10],8
same,Sugarbeets plant response rating,sugar beet; [11],0
same,Sugarbeets plant response rating,sugar beet; [12],0
same,B. signalgrass plant response rating,"surinam grass; Postemergence, Rate 250 g/ha, scale 0 to 10, 0 no effect, 10 complete control",0
same,B. signalgrass plant response rating,surinam grass; [6],3
same,"Plant response rating, B. signalgrass",surinam grass; [7],4
same,"Plant response rating, B. signalgrass",surinam grass; [8],4
same,B. signalgrass plant response rating,surinam grass; [9],4
same,B. signalgrass plant response rating,surinam grass; [10],4
same,B. signalgrass plant response rating,surinam grass; [11],0
same,B. signalgrass plant response rating,surinam grass; [12],0
same,Soybean plant response rating,soybean; [5],2
same,"Plant response rating, Soybean","soybean; Preemergence, Rate 62 g/ha",0
same,"Plant response rating, Soybean","soybean; Preemergence, Rate 125 g/ha",0
same,Soybean plant response rating,soybean; [9],0
same,Soybean plant response rating,soybean; [10],2
same,Soybean plant response rating,soybean; [11],0
same,Soybean plant response rating,soybean; [12],1
same,Blackgrass plant response rating,blackgrass; [5],8
same,Blackgrass plant response rating,blackgrass; [6],8
same,"Plant response rating, Blackgrass",blackgrass; [7],6
same,"Plant response rating, Blackgrass",blackgrass; [8],8
same,Blackgrass plant response rating,blackgrass; [9],8
same,Blackgrass plant response rating,blackgrass; [10],9
same,Blackgrass plant response rating,blackgrass; [11],0
same,Blackgrass plant response rating,blackgrass; [12],3
same,Cocklebur plant response rating,cocklebur; [5],0
same,Cocklebur plant response rating,cocklebur; [6],2
same,"Plant response rating, Cocklebur",cocklebur; [7],0
same,"Plant response rating, Cocklebur",cocklebur; [8],0
same,Cocklebur plant response rating,cocklebur; [9],0
same,Cocklebur plant response rating,cocklebur; [10],0
same,Cocklebur plant response rating,cocklebur; [11],0
same,Cocklebur plant response rating,cocklebur; [12],0
same,Corn plant response rating,corn; [5],2
same,Corn plant response rating,corn; [6],2
same,"Plant response rating, Corn",corn; [7],0
same,"Plant response rating, Corn",corn; [8],0
same,Corn plant response rating,corn; [9],0
same,Corn plant response rating,corn; [10],3
same,Corn plant response rating,corn; [11],0
same,Corn plant response rating,corn; [12],0
same,Wheat plant response rating,wheat; [5],2
same,"Plant response rating, Wheat","wheat; Preemergence, Rate 62 g/ha",0
same,"Plant response rating, Wheat","wheat; Preemergence, Rate 125 g/ha",0
same,Wheat plant response rating,wheat; [9],0
same,Wheat plant response rating,wheat; [10],2
same,Wheat plant response rating,wheat; [11],0
same,Wheat plant response rating,wheat; [12],0
same,"Plant response rating, Barnyardgrass (0 to 10 scale, 0 is no effect, 10 is complete control)",bamyardgrass; [1],0
same,"Barnyardgrass plant response rating (0 to 10 scale, 0 is no effect, 10 is complete control)",bamyardgrass; [2],0
same,Barnyardgrass plant response rating,bamyardgrass; [3],0
same,Barnyardgrass plant response rating,bamyardgrass; [4],0
same,Redroot pigweed plant response rating,pigweed; [5],0
same,"Plant response rating, Redroot pigweed","pigweed; Preemergence, Rate 62 g/ha",0
same,"Plant response rating, Redroot pigweed","pigweed; Preemergence, Rate 125 g/ha",3
same,Redroot pigweed plant response rating,pigweed; [9],6
same,Redroot pigweed plant response rating,pigweed; [10],8
same,Redroot pigweed plant response rating,pigweed; [11],0
same,Redroot pigweed plant response rating,pigweed; [12],0
same,"Plant response rating, Ducksalad (0 to 10 scale, 0 is no effect, 10 is complete control)",duck salad; [1],0
same,"Ducksalad plant response rating (0 to 10 scale, 0 is no effect, 10 is complete control)",duck salad; [2],0
same,Ducksalad plant response rating,duck salad; [3],0
same,Ducksalad plant response rating,duck salad; [4],0
same,Morningglory plant response rating,morningglory; [5],3
same,"Plant response rating, Morningglory","morningglory; Preemergence, Rate 62 g/ha",0
same,"Plant response rating, Morningglory","morningglory; Preemergence, Rate 125 g/ha",0
same,Morningglory plant response rating,morningglory; [9],0
same,Morningglory plant response rating,morningglory; [10],0
same,Morningglory plant response rating,morningglory; [11],0
same,Morningglory plant response rating,morningglory; [12],0
same,Velvetleaf plant response rating,velvetleaf; [5],0
same,"Plant response rating, Velvetleaf","velvetleaf; Preemergence, Rate 62 g/ha",0
same,"Plant response rating, Velvetleaf","velvetleaf; Preemergence, Rate 125 g/ha",0
same,Velvetleaf plant response rating,velvetleaf; [9],2
same,Velvetleaf plant response rating,velvetleaf; [10],6
same,Velvetleaf plant response rating,velvetleaf; [11],0
same,Velvetleaf plant response rating,velvetleaf; [12],0
same,Crabgrass plant response rating,crabgrass; [5],8
same,Crabgrass plant response rating,crabgrass; [6],9
same,"Plant response rating, Crabgrass",crabgrass; [7],6
same,"Plant response rating, Crabgrass",crabgrass; [8],6
same,Crabgrass plant response rating,crabgrass; [9],9
same,Crabgrass plant response rating,crabgrass; [10],10
same,Crabgrass plant response rating,crabgrass; [11],2
same,Crabgrass plant response rating,crabgrass; [12],8
same,Wild oats plant response rating,wild oat; [5],2
same,"Plant response rating, Wild oats","wild oat; Preemergence, Rate 62 g/ha",0
same,"Plant response rating, Wild oats","wild oat; Preemergence, Rate 125 g/ha",2
same,Wild oats plant response rating,wild oat; [9],3
same,Wild oats plant response rating,wild oat; [10],10
same,Wild oats plant response rating,wild oat; [11],0
same,Wild oats plant response rating,wild oat; [12],0
